{"source": "ChEMBL document CHEMBL1201862", "about": "“PubChem BioAssay data set” (2004)", "key": {"Cytochrome P450 2D6": {"biological_target": "Cytochrome P450 2D6 (Homo sapiens, UniProt P10635)", "sequence (P10635 whole entry)": "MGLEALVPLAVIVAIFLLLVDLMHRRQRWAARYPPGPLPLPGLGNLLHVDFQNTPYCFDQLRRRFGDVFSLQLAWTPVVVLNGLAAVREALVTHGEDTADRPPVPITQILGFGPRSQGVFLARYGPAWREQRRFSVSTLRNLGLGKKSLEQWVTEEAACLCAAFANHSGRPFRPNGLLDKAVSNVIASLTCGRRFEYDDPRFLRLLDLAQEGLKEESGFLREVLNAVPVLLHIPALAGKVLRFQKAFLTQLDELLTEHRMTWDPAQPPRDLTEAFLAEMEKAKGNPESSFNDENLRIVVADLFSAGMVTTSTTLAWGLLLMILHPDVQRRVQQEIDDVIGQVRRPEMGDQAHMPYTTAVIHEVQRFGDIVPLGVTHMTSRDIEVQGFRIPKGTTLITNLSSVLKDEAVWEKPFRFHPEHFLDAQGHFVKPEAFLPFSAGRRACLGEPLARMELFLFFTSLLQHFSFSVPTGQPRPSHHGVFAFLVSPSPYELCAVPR"}, "Keap1/Nrf2": {"biological_target": "Keap1/Nrf2 (Homo sapiens, UniProt Q14145)", "sequence (Q16236 whole entry)": "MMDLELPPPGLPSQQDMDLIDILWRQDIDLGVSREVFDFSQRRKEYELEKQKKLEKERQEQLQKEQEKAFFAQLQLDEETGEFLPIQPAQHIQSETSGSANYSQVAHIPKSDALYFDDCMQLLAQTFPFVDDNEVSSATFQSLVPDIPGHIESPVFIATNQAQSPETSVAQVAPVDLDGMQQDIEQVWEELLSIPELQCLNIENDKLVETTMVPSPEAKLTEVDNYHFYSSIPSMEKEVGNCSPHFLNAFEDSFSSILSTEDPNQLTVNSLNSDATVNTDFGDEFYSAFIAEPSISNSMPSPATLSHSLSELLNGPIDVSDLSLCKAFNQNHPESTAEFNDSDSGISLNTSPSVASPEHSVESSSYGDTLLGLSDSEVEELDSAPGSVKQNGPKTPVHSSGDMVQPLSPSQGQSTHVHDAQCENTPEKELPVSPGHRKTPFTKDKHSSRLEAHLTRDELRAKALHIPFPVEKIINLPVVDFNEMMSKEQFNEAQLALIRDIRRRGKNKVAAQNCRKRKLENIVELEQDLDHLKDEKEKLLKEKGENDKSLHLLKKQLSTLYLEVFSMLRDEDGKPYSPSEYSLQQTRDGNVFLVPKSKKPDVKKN", "sequence (Q14145 whole entry)": "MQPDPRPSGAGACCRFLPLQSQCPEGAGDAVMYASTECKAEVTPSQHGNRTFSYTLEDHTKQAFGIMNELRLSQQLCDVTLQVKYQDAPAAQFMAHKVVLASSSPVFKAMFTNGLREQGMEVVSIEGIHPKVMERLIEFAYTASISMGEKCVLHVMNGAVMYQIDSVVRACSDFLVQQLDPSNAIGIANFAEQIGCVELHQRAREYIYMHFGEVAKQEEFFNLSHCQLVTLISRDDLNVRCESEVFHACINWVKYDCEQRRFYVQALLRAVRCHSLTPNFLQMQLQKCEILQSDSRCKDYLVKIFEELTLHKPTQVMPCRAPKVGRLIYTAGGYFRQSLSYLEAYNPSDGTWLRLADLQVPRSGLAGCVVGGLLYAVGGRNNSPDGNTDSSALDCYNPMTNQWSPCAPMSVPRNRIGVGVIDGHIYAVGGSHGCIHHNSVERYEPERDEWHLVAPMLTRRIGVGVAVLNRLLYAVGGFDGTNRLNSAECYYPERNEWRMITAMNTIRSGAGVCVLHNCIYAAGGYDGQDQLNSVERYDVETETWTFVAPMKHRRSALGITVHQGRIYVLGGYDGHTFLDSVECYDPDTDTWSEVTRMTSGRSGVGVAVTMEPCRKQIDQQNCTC", "experiment": "disruptors of Keap1 binding to Nrf2 peptide – biochemical, fluorescence polarization, cherry-picked samples, dose response (AID 588683)"}, "Streptococcus": {"test_system": "Streptococcus", "experiment": "GAS UMAA2166 growth inhibition – luminescence, BacTiterGlo, counter-screen for streptokinase expression inhibitor project, dose response (AID 1915)", "format": "functional, organism-based"}, "Streptokinase A": {"biological_target": "T1, Streptokinase A (Streptococcus pyogenes serotype M1, UniProt P10520)", "T1 sequence (P10520 whole entry)": "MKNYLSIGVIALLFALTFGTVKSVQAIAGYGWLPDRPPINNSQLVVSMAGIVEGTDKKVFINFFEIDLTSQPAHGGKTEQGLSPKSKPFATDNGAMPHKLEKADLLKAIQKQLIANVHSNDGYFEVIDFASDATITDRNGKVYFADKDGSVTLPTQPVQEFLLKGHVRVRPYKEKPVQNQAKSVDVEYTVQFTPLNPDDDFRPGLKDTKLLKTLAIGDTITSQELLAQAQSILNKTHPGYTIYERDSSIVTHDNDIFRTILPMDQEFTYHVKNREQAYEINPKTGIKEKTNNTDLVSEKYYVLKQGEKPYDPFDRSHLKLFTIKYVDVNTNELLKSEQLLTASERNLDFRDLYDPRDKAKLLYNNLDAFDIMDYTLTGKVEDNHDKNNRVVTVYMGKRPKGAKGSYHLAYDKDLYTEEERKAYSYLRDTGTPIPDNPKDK", "experiment": "viability-normalized secreted streptokinase activity reduction – plasminogen activation absorbance, OD405, dose response (AID 1914);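 further: secreted streptokinase activity via plasminogen activation per viability signal from cell pellet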", "format": "functional, Streptococcus pyogenes M1 GAS"}, "[1]": {"biological_target": "T2, RNA-binding protein pos-1 (Caenorhabditis elegans, UniProt G5EF15)", "T2 sequence (G5EF15 whole entry)": "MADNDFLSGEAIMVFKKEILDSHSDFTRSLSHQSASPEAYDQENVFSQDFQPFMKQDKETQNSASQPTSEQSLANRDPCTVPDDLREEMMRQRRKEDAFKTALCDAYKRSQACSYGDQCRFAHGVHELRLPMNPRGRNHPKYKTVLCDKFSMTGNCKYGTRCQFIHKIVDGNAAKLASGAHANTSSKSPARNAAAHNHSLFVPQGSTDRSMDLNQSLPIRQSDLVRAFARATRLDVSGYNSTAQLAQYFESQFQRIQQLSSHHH", "experiment": "disruptors of C. elegans POS-1 RNA interaction – biochemical, fluorescence polarization, dose response (AID 1964);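 further: purified POS-1 fused to maltose binding protein made in E. coli; potency of compounds blocking POS-1 binding to fluorescent RNA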"}, "[2]": {"biological_target": "T3, Zinc finger protein mex-5 (Caenorhabditis elegans, UniProt Q9XUB2)", "T3 sequence (Q9XUB2 whole entry)": "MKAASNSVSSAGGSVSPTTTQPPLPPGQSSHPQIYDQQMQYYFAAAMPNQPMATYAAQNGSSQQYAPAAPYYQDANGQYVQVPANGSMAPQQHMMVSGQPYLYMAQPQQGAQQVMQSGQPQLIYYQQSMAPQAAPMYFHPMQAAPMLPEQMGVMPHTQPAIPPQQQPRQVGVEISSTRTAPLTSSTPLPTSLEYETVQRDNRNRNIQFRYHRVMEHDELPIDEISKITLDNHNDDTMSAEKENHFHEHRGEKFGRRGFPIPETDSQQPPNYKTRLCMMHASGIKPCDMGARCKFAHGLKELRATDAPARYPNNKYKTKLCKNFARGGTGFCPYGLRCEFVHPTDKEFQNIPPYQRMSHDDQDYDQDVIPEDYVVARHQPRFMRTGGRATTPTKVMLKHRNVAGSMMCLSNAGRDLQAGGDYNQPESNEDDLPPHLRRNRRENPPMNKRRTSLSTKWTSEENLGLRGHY", "experiment": "potency of MEX-5 RNA-binding blockers – biochemical, C. elegans, fluorescence polarization, dose response (AID 1960)"}, "[3]": {"biological_target": "Neurotensin receptor type 1 (Homo sapiens, UniProt P30989)", "sequence (P30989 whole entry)": "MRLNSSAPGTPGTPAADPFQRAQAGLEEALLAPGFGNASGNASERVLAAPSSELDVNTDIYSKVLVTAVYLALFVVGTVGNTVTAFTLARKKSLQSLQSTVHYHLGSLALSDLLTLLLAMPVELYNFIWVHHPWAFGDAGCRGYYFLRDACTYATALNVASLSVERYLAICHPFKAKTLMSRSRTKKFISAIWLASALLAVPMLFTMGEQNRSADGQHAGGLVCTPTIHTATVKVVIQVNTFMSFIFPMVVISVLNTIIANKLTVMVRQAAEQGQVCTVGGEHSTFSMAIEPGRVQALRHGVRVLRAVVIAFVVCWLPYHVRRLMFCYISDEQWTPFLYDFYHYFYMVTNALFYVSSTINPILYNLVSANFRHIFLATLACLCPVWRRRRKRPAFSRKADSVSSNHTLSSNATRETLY", "format": "functional"}, "[4]": {"test_system": "Streptococcus sp. 'group A'", "experiment": "Streptococcus pyogenes SK(-)GAS viability under kanamycin – luminescence, BacTiterGlo, confirmation, counter-screen for streptokinase expression inhibitor project, dose response (AID 1900)", "format": "functional, organism-based"}, "[5]": {"biological_target": "Photoreceptor-specific nuclear receptor (Homo sapiens, UniProt Q9Y5X4)", "sequence (Q9Y5X4 whole entry)": "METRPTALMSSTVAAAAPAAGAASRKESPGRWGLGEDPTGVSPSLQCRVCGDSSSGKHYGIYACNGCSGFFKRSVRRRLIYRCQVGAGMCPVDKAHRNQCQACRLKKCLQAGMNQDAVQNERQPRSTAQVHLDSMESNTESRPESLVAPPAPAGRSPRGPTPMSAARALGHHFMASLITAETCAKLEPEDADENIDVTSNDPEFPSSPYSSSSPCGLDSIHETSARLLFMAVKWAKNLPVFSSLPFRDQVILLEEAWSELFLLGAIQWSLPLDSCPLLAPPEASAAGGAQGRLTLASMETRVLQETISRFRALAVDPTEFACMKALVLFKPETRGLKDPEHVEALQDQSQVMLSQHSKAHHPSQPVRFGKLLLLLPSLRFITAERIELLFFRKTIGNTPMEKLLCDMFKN", "format": "functional"}, "[6]": {"biological_target": "Peroxisome proliferator-activated receptor gamma/Nuclear receptor coactivator 3 (Homo sapiens, UniProt P37231)", "experiment": "TR-FRET dose response biochemical High Throughput Screening assay for agonists of the steroid receptor coactivator 3 (SRC-3) recruitment by the peroxisome proliferator-activated receptor gamma (PPAR gamma): non-selective agonists. [Related pubchem assays: 1301 (Confirmation screen.), 1048 (Primary screen.)]", "format": "functional"}, "[7]": {"biological_target": "Peroxisome proliferator-activated receptor gamma/Nuclear receptor coactivator 2 (Homo sapiens, UniProt P37231)", "experiment": "(§1) TR-FRET dose response biochemical High Throughput Screening assay for agonists of the steroid receptor coactivator 2 (SRC-2) recruitment by the peroxisome proliferator-activated receptor gamma (PPAR gamma): non-selective agonists. [Related pubchem assays: 1297, 1032 ]", "format": "functional"}, "[8]": {"biological_target": "Peroxisome proliferator-activated receptor gamma/Nuclear receptor coactivator 1 (Homo sapiens, UniProt P37231)", "sequence (P37231 whole entry)": "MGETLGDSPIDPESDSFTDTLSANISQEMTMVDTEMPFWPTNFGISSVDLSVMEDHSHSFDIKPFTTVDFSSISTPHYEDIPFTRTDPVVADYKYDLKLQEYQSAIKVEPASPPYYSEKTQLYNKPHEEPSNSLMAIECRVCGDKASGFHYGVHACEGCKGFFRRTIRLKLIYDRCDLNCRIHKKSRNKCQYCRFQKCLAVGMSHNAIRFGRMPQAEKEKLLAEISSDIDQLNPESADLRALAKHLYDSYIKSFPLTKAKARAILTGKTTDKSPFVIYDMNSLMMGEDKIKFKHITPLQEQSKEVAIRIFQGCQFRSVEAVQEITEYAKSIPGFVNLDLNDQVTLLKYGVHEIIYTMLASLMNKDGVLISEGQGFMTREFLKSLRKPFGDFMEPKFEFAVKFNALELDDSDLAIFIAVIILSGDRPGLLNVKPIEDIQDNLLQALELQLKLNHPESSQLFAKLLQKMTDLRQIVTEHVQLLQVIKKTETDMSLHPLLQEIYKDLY", "sequence (Q15788 whole entry, further chain)": "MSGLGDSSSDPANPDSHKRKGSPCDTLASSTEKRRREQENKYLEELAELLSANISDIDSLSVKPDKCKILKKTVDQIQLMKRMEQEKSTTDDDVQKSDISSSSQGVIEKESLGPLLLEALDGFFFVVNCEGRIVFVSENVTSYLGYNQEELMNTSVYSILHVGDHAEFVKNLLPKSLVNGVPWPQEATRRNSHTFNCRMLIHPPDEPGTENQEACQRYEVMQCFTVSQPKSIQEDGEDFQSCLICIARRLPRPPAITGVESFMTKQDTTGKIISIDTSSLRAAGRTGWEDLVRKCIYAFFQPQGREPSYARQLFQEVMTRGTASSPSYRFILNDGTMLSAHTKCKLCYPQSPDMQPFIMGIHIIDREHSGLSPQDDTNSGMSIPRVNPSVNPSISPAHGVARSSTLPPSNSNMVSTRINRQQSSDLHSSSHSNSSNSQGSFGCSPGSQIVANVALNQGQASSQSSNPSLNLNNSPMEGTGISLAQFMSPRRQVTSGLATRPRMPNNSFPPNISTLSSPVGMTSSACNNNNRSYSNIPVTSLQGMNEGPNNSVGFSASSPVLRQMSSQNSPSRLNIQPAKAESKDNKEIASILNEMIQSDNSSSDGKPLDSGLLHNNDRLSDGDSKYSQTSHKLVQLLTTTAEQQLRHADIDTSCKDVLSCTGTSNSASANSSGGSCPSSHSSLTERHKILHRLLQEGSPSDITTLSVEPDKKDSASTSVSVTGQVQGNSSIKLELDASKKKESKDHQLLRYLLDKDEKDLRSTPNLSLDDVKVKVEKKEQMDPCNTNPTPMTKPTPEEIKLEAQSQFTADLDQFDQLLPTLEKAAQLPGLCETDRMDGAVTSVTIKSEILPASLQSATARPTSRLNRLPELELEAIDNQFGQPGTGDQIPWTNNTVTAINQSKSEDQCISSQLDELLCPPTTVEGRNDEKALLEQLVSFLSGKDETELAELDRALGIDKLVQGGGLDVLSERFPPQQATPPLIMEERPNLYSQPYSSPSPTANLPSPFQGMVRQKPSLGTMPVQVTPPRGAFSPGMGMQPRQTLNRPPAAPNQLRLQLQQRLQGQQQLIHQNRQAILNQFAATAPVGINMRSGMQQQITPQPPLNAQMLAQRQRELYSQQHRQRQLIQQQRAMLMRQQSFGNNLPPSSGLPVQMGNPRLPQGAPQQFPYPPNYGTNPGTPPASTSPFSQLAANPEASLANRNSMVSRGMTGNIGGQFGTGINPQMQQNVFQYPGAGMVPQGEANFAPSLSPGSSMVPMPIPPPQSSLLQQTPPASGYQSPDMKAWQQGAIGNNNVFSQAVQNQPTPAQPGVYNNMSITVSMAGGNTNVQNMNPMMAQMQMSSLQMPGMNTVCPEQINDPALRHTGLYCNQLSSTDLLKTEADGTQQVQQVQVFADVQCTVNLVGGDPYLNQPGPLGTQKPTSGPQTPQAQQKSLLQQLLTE", "experiment": "as §1, with “1 (SRC-1)” for “2 (SRC-2)”, “assays (depositor defined):AID1300, AID1808, AID504735, AID631]” for “assays: 1297, 1032 ]”", "format": "protein assay"}, "[9]": {"biological_target": "Peroxisome proliferator-activated receptor gamma/Nuclear receptor corepressor 2 (Homo sapiens, UniProt P37231+Q9Y618)", "format": "functional"}, "[10]": {"biological_target": "E3 ubiquitin-protein ligase XIAP (Homo sapiens, UniProt P98170)", "sequence (P98170 whole entry)": "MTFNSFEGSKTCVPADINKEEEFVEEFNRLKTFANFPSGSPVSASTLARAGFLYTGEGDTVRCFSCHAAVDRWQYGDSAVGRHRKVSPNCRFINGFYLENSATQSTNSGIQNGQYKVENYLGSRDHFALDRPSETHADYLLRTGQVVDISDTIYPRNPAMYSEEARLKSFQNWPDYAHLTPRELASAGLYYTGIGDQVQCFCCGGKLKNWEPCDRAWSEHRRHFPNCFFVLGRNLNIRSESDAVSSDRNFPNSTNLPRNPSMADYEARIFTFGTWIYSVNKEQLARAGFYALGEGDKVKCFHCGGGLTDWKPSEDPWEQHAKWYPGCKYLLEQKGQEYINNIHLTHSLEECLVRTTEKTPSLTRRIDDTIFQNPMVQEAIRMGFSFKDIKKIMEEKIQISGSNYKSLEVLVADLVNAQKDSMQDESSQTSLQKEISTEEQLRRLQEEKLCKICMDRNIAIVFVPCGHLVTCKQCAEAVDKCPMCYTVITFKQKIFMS", "experiment": "Counter Screen using XIAP-Bir3 for Chemical Antagonists of Bir1/2 domains of IAP-family anti-apoptotic proteins. [Related pubchem assays (depositor defined):AID1018, AID1449, AID1514, AID1638, AID1749, AID1750, AID488957, AID488963]"}}, "note": "Active and inactive are the calls of the source."}
{"smiles": "C[C@]12CC[C@H]3c4ccc(O)cc4CC[C@@H]3[C@H]1C/C(=N/O)[C@H]2O", "values": [{"measurement": "AC50", "setting": "Cytochrome P450 2D6", "value": "inconclusive"}]}
{"smiles": "Nc1ccc(S(=O)(=O)NCCS(=O)(=O)O)cc1", "values": [{"measurement": "AC50", "setting": "Cytochrome P450 2D6", "value": "inconclusive"}]}
{"smiles": "CN1CC=C2C(C#N)=C(N)C(C#N)(C#N)[C@H](c3cccs3)[C@H]2C1", "values": [{"measurement": "AC50", "setting": "Keap1/Nrf2", "value": "> 52 µM (inactive)"}]}
{"smiles": "COc1ccc(OC)c(N/C=C2/C(=O)NC(=S)N(Cc3ccccc3)C2=O)c1", "values": [{"measurement": "EC50", "setting": "Streptococcus", "value": "> 150 µM (not active)"}, {"measurement": "EC50", "setting": "Streptokinase A", "value": "> 150 µM (not active)"}, {"measurement": "EC50", "setting": "[1]", "value": "> 300 µM (not active)"}, {"measurement": "EC50", "setting": "[2]", "value": "> 300 µM (inconclusive)"}, {"measurement": "EC50", "setting": "[3]", "value": "38.3 µM (inactive)"}, {"measurement": "EC50", "setting": "[4]", "value": "> 150 µM (not active)"}]}
{"smiles": "O=C(C1=C(O)C(=O)N(CCc2ccccc2)C1c1ccncc1)c1cc2ccccc2o1", "note": "(stereo not given)", "values": [{"measurement": "IC50", "setting": "[5]", "value": "> 39.8 µM (not active)"}, {"measurement": "EC50", "setting": "[6]", "value": "> 79.4 µM (not active)"}, {"measurement": "EC50", "setting": "[7]", "value": "26.1 µM (not active)"}, {"measurement": "EC50", "setting": "[8]", "value": "> 79.4 µM (inactive)"}, {"measurement": "IC50", "setting": "[9]", "value": "7.02 µM (active)"}]}
{"smiles": "C=CCc1cccc2cc(C(=O)Nc3ccc(CC(=O)O)cc3)c(=O)oc12", "values": [{"measurement": "IC50", "setting": "[10]", "value": "> 20 µM (inactive)"}]}
